Measurements: patent US11178870B2 (priority 2017, dated 2021)

Experiments:
Assay type in all cases: in vivo
[1] = system: Plasmopara viticola; assay: Test Example G: Downy mildew on vine; conditions: Downy mildew on vine, 250 ppm sprayed, 2.5 ml/pot, 7 to 10 days after inoculation, read-out: Test G control value
[2] = system: Alternaia brassicicola; assay: Test Example C: Alternaria sooty spot on cabbage; conditions: Brassica oleracea; Alternaria sooty spot on cabbage; read-out: Test C control value
[3] = system: Botrytis cinerea; assay: Test Example B: Gray mold on tomato; conditions: Gray mold on tomato, read-out: Test B control value
[4] = system: Blumeria graminis f. sp. hordei; assay: Test Example D: Powdery mildew on barley; conditions: Powdery mildew on barley, read-out: Test D control value
[5] = system: Phytophthora infestans; assay: whole plant or invertebrate; conditions: in Solanum lycopersicum, read-out: Test F control value
[6] = system: Magnaporthe grisea; assay: whole plant or invertebrate; conditions: Pyricularia oryzae, in Oryza sativa, read-out: Test A control value
[7] = system: Puccinia recondita; assay: Test Example E: Brown rust on wheat; conditions: Brown rust on wheat, read-out: Test E control value

| SMILES | pest or weed control at 250 ppm [1] | pest or weed control at 250 µg/mL [2] | pest or weed control at 250 µg/mL [3] | pest or weed control at 250 µg/mL [4] | pest or weed control at 250 µg/mL [5] | pest or weed control at 250 µg/mL [6] | pest or weed control at 250 µg/mL [7] |
| --- | --- | --- | --- | --- | --- | --- | --- |
| CCN1C(=O)CCC(c2cccs2)=C1c1c(F)cccc1F [compound 2, 6-(2,6-difluorophenyl)-1-ethyl-5-(thiophen-2-yl)-3,4-dihydropyridin-2(1H)-one] | > 50% | < 50% | < 50% | > 50% | < 50% | > 50% | > 50% |
| CCn1c(-c2c(F)cccc2F)c(-c2cccs2)ccc1=O [compound 5, 6-(2,6-difluorophenyl)-1-ethyl-5-(thiophen-2-yl)pyridin-2(1H)-one] | > 50% | > 50% | > 50% | > 50% | > 50% | > 50% | > 50% |
| CCn1c(-c2c(F)cccc2F)c(-c2ccc(Cl)s2)ccc1=O [compound 6, 5-(5-chlorothiophen-2-yl)-6-(2,6-difluorophenyl)-1-ethylpyridin-2(1H)-one] | < 50% | > 50% | > 50% | < 50% | < 50% | > 50% | > 50% |
| CCn1c(-c2c(F)cccc2F)c(-c2ccc(Cl)s2)cc(Cl)c1=O [compound 7, 3-chloro-5-(5-chlorothiophen-2-yl)-6-(2,6-difluorophenyl)-1-ethylpyridin-2(1H)-one] | < 50% | > 50% | > 50% | < 50% | < 50% | > 50% | > 50% |
| CCn1c(-c2c(F)cc(F)cc2F)c(C2OCCCO2)cc(Cl)c1=O [compound 8, 3-chloro-5-(1,3-dioxan-2-yl)-1-ethyl-6-(2,4,6-trifluorophenyl)-pyridin-2(1H)-one] | > 50% | > 50% | > 50% | < 50% | < 50% | > 50% | < 50% |
| CCn1c(-c2c(F)cccc2F)c(-c2cccnc2Cl)ccc1=O [compound 17] | – | – | > 50% | > 50% | – | – | > 50% |
| CCn1c(-c2c(F)cccc2F)c(-c2cccnc2Cl)cc(Cl)c1=O [compound 18] | < 50% | > 50% | > 50% | > 50% | < 50% | > 50% | > 50% |
| CCn1c(-c2c(F)cc(F)cc2F)c(-c2ccnn2C)cc(Cl)c1=O [compound 20, 3-chloro-1-ethyl-5-(1-methyl-1H-pyrazol-5-yl)-6-(2,4,6-trifluorophenyl)pyridin-2(1H)-one] | < 50% | > 50% | > 50% | > 50% | < 50% | > 50% | > 50% |
| CCn1c(-c2c(F)cc(F)cc2F)c(-c2c(Br)cnn2C)cc(Cl)c1=O [compound 21, 5-(4-bromo-1-methyl-1H-pyrazol-5-yl)-3-chloro-1-ethyl-6-(2,4,6-trifluorophenyl)pyridin-2(1H)-one] | > 50% | > 50% | > 50% | > 50% | < 50% | > 50% | > 50% |
| CCn1c(-c2c(F)cc(OC)cc2F)c(-c2c(Br)cnn2C)cc(Cl)c1=O [compound 23, 5-(4-bromo-1-methyl-1H-pyrazol-5-yl)-3-chloro-6-(2,6-difluoro-4-methoxyphenyl)-1-ethylpyridin-2(1H)-one] | < 50% | > 50% | > 50% | > 50% | < 50% | > 50% | > 50% |
| CCn1c(-c2c(F)cc(F)cc2F)c(-c2nn(C)cc2Br)cc(Cl)c1=O [compound 24, 5-(4-bromo-1-methyl-1H-pyrazol-3-yl)-3-chloro-1-ethyl-6-(2,4,6-trifluorophenyl)pyridin-2(1H)-one] | > 50% | > 50% | > 50% | > 50% | < 50% | > 50% | > 50% |
| CCN1C(=O)CCC(n2cccn2)=C1c1c(F)cc(F)cc1F [compound 25, 1-ethyl-5-(1H-pyrazol-1-yl)-6-(2,4,6-trifluorophenyl)-3,4-dihydropyridin-2(1H)-one] | < 50% | > 50% | < 50% | > 50% | < 50% | < 50% | < 50% |
| CCn1c(-c2c(F)cc(F)cc2F)c(-n2cccn2)ccc1=O [compound 26, 1-ethyl-5-(1H-pyrazol-1-yl)-6-(2,4,6-trifluorophenyl)pyridin-2(1H)-one] | < 50% | > 50% | > 50% | > 50% | < 50% | > 50% | > 50% |
| CCn1c(-c2c(F)cc(F)cc2F)c(-n2cc(Cl)cn2)ccc1=O [compound 27, 5-(4-chloro-1H-pyrazol-1-yl)-1-ethyl-6-(2,4,6-trifluorophenyl)-pyridin-2(1H)-one] | < 50% | > 50% | > 50% | > 50% | < 50% | < 50% | > 50% |
| CCn1c(-c2c(F)cc(F)cc2F)c(-n2cncn2)cc(Cl)c1=O [compound 34, 3-chloro-1-ethyl-5-(1H-1,2,4-triazol-1-yl)-6-(2,4,6-trifluorophenyl)pyridin-2(1H)-one] | < 50% | > 50% | > 50% | > 50% | < 50% | > 50% | > 50% |
| CCn1c(-c2c(F)cc(F)cc2F)c(-n2ncnc2Br)cc(Cl)c1=O [compound 35, 5-(5-bromo-1H-1,2,4-triazol-1-yl)-3-chloro-1-ethyl-6-(2,4,6-trifluorophenyl)pyridin-2(1H)-one] | < 50% | > 50% | > 50% | > 50% | < 50% | > 50% | > 50% |
